This note sets out measurements from patent US20230056205A1, “SUBSTITUTED 4,6-DIHYDROSPIRO[[1,2,3]TRIAZOLO[4,5-B]PYRIDINE-7,3'-INDOLINE]-2',5(3H)-DIONE ANALOGUES” (The Board of Regents of The University of Texas System, priority 2019, published 2023).

One data set deals with DENV-2 replicon. The data set is described as follows: Luciferase reporter replicon-based screening, DENV-2. The class given is cell-based, DENV-2 (New Guinea C strain, NGC). The procedure:
(§1) Luciferase Reporter Replicon-Based Screening. Huh7 cells containing a luciferase reporter replicon of DENV-1 (strain WestPac), DENV-2 (New Guinea C strain, NGC), DENV-3 (strain D3MY05-34640) and DENV-4 (strain D4MY01-22713) were used in this study. The replicon cells containing the Renilla luciferase and neomycin-resistance genes were generated using a similar strategy as described previously.^55 Briefly, Huh7 DENV-1 to -4 replicon cells were seeded at a density of 10k per well in a 96-well microplate. After incubation at 37° C. with 5% CO2 overnight, the cells were treated with 2-fold serial dilutions of compounds. Experiments were performed in duplicates. After 48 h of incubation, luciferase activities were measured using the EnduRen live-cell substrate (Promega) by following the manufacturer’s instructions. The dose-dependent curve was plotted and EC50 values were calculated using four parameter logistic regression in GraphPad software Prism 8.0.
Background: Reporter assays use an easily measured gene product as a stand-in for the process of interest.

A further data set concerns DENV-4 replicon. The data set is described as follows: Luciferase reporter replicon-based screening, DENV-4. The class given is cell-based, DENV-4 (strain D4MY01-22713). To be noted: Dengue virus, DENV4, Huh-7, 48 h, read-out: EC50 DENV-4. The procedure:
as §1

A further data set relates to DENV-1 replicon. In words: Luciferase reporter replicon-based screening, DENV-1. The class given is cell-based, DENV-1 (strain WestPac). To be noted: Dengue virus, DENV1, Huh-7, 48 h, read-out: EC50 DENV-1. As to the method: as §1
A short description of data set [1]: Cytotoxicity assay (CellTiter-Glo). The class given is cell-based. The note with it: human, Huh7 cells stably expressing DENV-2 replicon. The procedure: Cytotoxicity Assay. Huh7 cells or Huh7 replicon cells were seeded in a 96-well plate. After incubation at 37° C. with 5% CO2 overnight, the cells were treated with 2-fold serial dilutions of compounds. Experiments were performed in duplicates. After 48 h of incubation, cell viability was measured by adding the CellTiter-Glo reagent (Promega) to each well. The cell viability in 0.45% DMSO-treatment groups was treated at 100%. The cell viability in compound-treated wells was normalized to that of DMSO-treated wells. CC50 values were calculated using four parameter logistic regression in GraphPad software Prism 8.0.
On the technique in general: ATP-based viability assays read luminescence as a measure of living cells.

In another data set the test system is DENV-3 replicon. The data set is described as follows: Luciferase reporter replicon-based screening, DENV-3. The class given is cell-based, DENV-3 (strain D3MY05-34640). The procedure: as §1
[2] abbreviates: Dengue virus, DENV2, Huh-7, 48 h, read-out: EC50 DENV-2, Huh7 cells stably expressing DENV-2 replicon, 48 h.
Where [3] appears, read: Dengue virus, DENV3, Huh-7, 48 h, read-out: EC50 DENV-3, Huh7 cells stably expressing DENV-3 replicon, 48 h.
Setting [4] is: read-out: EC50 DENV-2, Huh7 cells stably expressing DENV-2 replicon, 48 h.
Where [5] appears, read: read-out: EC50 DENV-3, Huh7 cells stably expressing DENV-3 replicon, 48 h.

Where two headings read alike, the source gives them in different places.

As for `COc1cccc(CN2C(=O)[C@]3(CC(=O)Nc4c3nnn4[C@@H](C)c3ccc(Cl)cc3)c3cc(Cl)ccc32)c1` [Compound 29, (R)-5'-Chloro-3-((S)-1-(4-chlorophenyl)ethyl)-1'-(3-methoxybenzyl)-4,6-dihydrospiro[[1,2,3]triazolo[4,5-b]pyridine-7,3'-indoline]-2',5(3H)-dione], the EC50 (commonly the concentration at which the effect is half-maximal) with DENV-2 replicon (setting [2]) is 830 nM; in the data set with DENV-4 replicon it was 6200 nM; in the data set on DENV-1 replicon it was 2600 nM; in the data set on DENV-3 replicon (setting [3]) it was 87 nM. For the same compound, the CC50 (commonly the concentration giving 50% cytotoxicity) at 48 h in data set [1] was greater than 10000 nM.

Regarding `COc1cc(CN2C(=O)[C@]3(CC(=O)Nc4c3nnn4[C@@H](C)c3ccc(Cl)cc3)c3cc(Cl)ccc32)cc(OC)c1` [Compound 30, (R)-5'-Chloro-3-((S)-1-(4-chlorophenyl)ethyl)-1'-(3,5-dimethoxybenzyl)-4,6-dihydrospiro[[1,2,3]triazolo[4,5-b]pyridine-7,3'-indoline]-2',5(3H)-dione], the EC50 came out at 3100 nM with DENV-2 replicon (setting [2]), 7400 nM in the data set on DENV-4 replicon, 3400 nM in the data set with DENV-1 replicon and 790 nM with DENV-3 replicon (setting [3]). Moreover, the CC50 at 48 h in data set [1] is greater than 10000 nM.

With `C[C@@H](c1ccc(Cl)cc1)n1nnc2c1NC(=O)C[C@]21C(=O)N(Cc2cc(C(C)(C)C)cc(C(C)(C)C)c2)c2ccc(Cl)cc21` [Compound 31, (R)-5'-Chloro-3-((S)-1-(4-chlorophenyl)ethyl)-1'-(3,5-di-tert-butylbenzyl)-4,6-dihydrospiro[[1,2,3]triazolo[4,5-b]pyridine-7,3ʹ-indoline]-2',5(3H)-dione], the EC50 in the data set with DENV-2 replicon (setting [2]) was greater than 10000 nM; in the data set on DENV-4 replicon, 4900 nM; with DENV-1 replicon, 4600 nM; with DENV-3 replicon (setting [3]) it was 5900 nM. Also, the CC50 at 48 h in data set [1] was greater than 10000 nM.

Take `C[C@@H](c1ccc(Cl)cc1)n1nnc2c1NC(=O)C[C@]21C(=O)N(CCc2ccccc2)c2ccc(Cl)cc21` [Compound 32, (R)-5'-Chloro-3-((S)-1-(4-chlorophenyl)ethyl)-1'-phenethyl-4,6-dihydrospiro[[1,2,3]triazolo[4,5-b]pyridine-7,3'-indoline]-2',5(3H)-dione]: the EC50 was 600 nM with DENV-2 replicon (setting [2]), greater than 5000 nM in the data set with DENV-4 replicon, 1100 nM in the data set on DENV-1 replicon and 190 nM with DENV-3 replicon (setting [3]). The CC50 at 48 h in data set [1] was greater than 10000 nM.

For the compound `C[C@@H](c1ccc(Cl)cc1)n1nnc2c1NC(=O)C[C@]21C(=O)N(Cc2ccccn2)c2ccc(Cl)cc21` [Compound 33, (R)-5'-chloro-3-((S)-1-(4-chlorophenyl)ethyl)-1'-(pyridin-2-ylmethyl)-4,6-dihydrospiro[[1,2,3]triazolo[4,5-b]pyridine-7,3'-indoline]-2',5(3H)-dione], the EC50 with DENV-2 replicon (setting [2]) was 20 nM; in the data set with DENV-4 replicon, greater than 5000 nM; in the data set on DENV-1 replicon, greater than 5000 nM; with DENV-3 replicon (setting [3]), 3 nM. This compound also showed a CC50 at 48 h in data set [1] greater than 10000 nM.

Consider `C[C@@H](c1ccc(Cl)cc1)n1nnc2c1NC(=O)C[C@]21C(=O)N(Cc2cccnc2)c2ccc(Cl)cc21` [Compound 34, (R)-5'-Chloro-3-((S)-1-(4-chlorophenyl)ethyl)-1'-(pyridin-3-ylmethyl)-4,6-dihydrospiro[[1,2,3]triazolo[4,5-b]pyridine-7,3'-indoline]-2',5(3H)-dione], for which the EC50 in the data set with DENV-2 replicon (setting [2]) was 29 nM; in the data set with DENV-4 replicon, greater than 5000 nM; in the data set with DENV-1 replicon it was 3200 nM; in the data set with DENV-3 replicon (setting [3]), 21 nM. In data set [1], this compound returned a CC50 at 48 h greater than 10000 nM.

For `C[C@@H](c1ccc(Cl)cc1)n1nnc2c1NC(=O)C[C@]21C(=O)N(Cc2ccncc2)c2ccc(Cl)cc21` [Compound 35, (R)-5'-Chloro-3-((S)-1-(4-chlorophenyl)ethyl)-1'-(pyridin-4-ylmethyl)-4,6-dihydrospiro[[1,2,3]triazolo[4,5-b]pyridine-7,3'-indoline]-2',5(3H)-dione], the EC50 was 72 nM with DENV-2 replicon (setting [2]), greater than 5000 nM in the data set with DENV-4 replicon, greater than 5000 nM in the data set with DENV-1 replicon and 25 nM in the data set on DENV-3 replicon (setting [3]). Besides, the cytotoxic concentration (CC50) at 48 h in data set [1] is greater than 10000 nM.

On to `C[C@@H](c1ccc(Cl)cc1)n1nnc2c1NC(=O)C[C@]21C(=O)N(Cc2ccc(Cl)nc2)c2ccc(Cl)cc21` [Compound 36, (R)-5'-Chloro-3-((S)-1-(4-chlorophenyl)ethyl)-1'-((6-chloropyridin-3-yl)methyl)-4,6-dihydrospiro[[1,2,3]triazolo[4,5-b]pyridine-7,3ʹ-indoline]-2',5(3H)-dione], for which the EC50 was 78 nM with DENV-2 replicon (setting [2]), greater than 5000 nM with DENV-4 replicon, greater than 5000 nM with DENV-1 replicon and 6 nM with DENV-3 replicon (setting [3]). The compound further registered a CC50 at 48 h in data set [1] greater than 10000 nM.

As for `Cc1ccc(CN2C(=O)[C@]3(CC(=O)Nc4c3nnn4[C@@H](C)c3ccc(Cl)cc3)c3cc(Cl)ccc32)cn1` [Compound 37, (R)-5'-Chloro-3-((S)-1-(4-chlorophenyl)ethyl)-1'-((6-methylpyridin-3-yl)methyl)-4,6-dihydrospiro[[1,2,3]triazolo[4,5-b]pyridine-7,3'-indoline]-2',5(3H)-dione], the EC50 with DENV-2 replicon (setting [2]) was 150 nM; in the data set with DENV-4 replicon, greater than 5000 nM; in the data set on DENV-1 replicon it was greater than 5000 nM; with DENV-3 replicon (setting [3]), 11 nM. Moreover, the CC50 at 48 h in data set [1] is greater than 10000 nM.

Turning to `COCCCN1C(=O)[C@]2(CC(=O)Nc3c2nnn3[C@@H](C)c2ccc(Cl)cc2)c2cc(Cl)ccc21` [Compound 39, (R)-5'-Chloro-3-((S)-1-(4-chlorophenyl)ethyl)-1'-(3-methoxypropyl)-4,6-dihydrospiro[[1,2,3]triazolo[4,5-b]pyridine-7,3'-indoline]-2',5(3H)-dione], the EC50 with DENV-2 replicon (setting [2]) is 37 to 290 nM; with DENV-2 replicon (setting [4]), 40 nM; with DENV-4 replicon, greater than 5000 nM; in the data set with DENV-1 replicon, greater than 5000 nM; in the data set on DENV-3 replicon (setting [3]), 9 to 76 nM; in the data set on DENV-3 replicon (setting [5]) it was 9 nM. This compound registered a CC50 at 48 h in data set [1] greater than 10000 nM.

Regarding `COCCCN1C(=O)C[C@]2(C(=O)Nc3ccc(Cl)cc32)c2nnn([C@@H](C)c3ccc(Cl)cc3)c21` [Compound 40, (R)-5'-Chloro-3-((S)-1-(4-chlorophenyl)ethyl)-4-(3-methoxypropyl)-4,6-dihydrospiro[[1,2,3]triazolo[4,5-b]pyridine-7,3-indoline]-2',5(3H)-dione], the EC50 in the data set on DENV-2 replicon (setting [2]) was 8700 nM; in the data set with DENV-4 replicon, greater than 10000 nM; in the data set with DENV-1 replicon, greater than 10000 nM; in the data set with DENV-3 replicon (setting [3]), 910 nM. For the same compound, the CC50 at 48 h in data set [1] is greater than 10000 nM.

For `C[C@@H](c1ccc(Cl)cc1)n1nnc2c1NC(=O)C[C@]21C(=O)N(CCO)c2ccc(Cl)cc21` [Compound 42, (R)-5'-Chloro-3-((S)-1-(4-chlorophenyl)ethyl)-1'-(2-hydroxyethyl)-4,6-dihydrospiro[[1,2,3]triazolo[4,5-b]pyridine-7,3'-indoline]-2',5(3H)-dione], the concentration giving a half-maximal response (EC50) in the data set on DENV-2 replicon (setting [2]) is 37 to 290 nM; in the data set with DENV-2 replicon (setting [4]) it was 37 nM; with DENV-4 replicon, greater than 5000 nM; with DENV-1 replicon, greater than 5000 nM; in the data set with DENV-3 replicon (setting [3]) it was 9 to 76 nM; with DENV-3 replicon (setting [5]), 10 nM. In data set [1], this compound returned a half-maximal cytotoxic concentration (CC50) at 48 h greater than 10000 nM.

In the case of `COC(=O)CN1C(=O)C[C@]2(C(=O)Nc3ccc(Cl)cc32)c2nnn([C@@H](C)c3ccc(Cl)cc3)c21` [Compound 44, Methyl 2-((R)-5'-chloro-3-((S)-1-(4-chlorophenyl)ethyl)-2',5-dioxo-5,6-dihydrospiro[[1,2,3]triazolo[4,5-b]pyridine-7,3'-indolin]-4(3H)-yl)acetate], the concentration for a half-maximal effect (EC50) with DENV-2 replicon (setting [2]) was greater than 10000 nM; in the data set with DENV-4 replicon, greater than 10000 nM; with DENV-1 replicon, greater than 10000 nM; with DENV-3 replicon (setting [3]) it was 2700 nM. Also, the CC50 at 48 h in data set [1] is greater than 10000 nM.

As for `C[C@@H](c1ccc(Cl)cc1)n1nnc2c1NC(=O)C[C@]21C(=O)N(CCF)c2ccc(Cl)cc21` [Compound 46, (R)-5'-Chloro-3-((S)-1-(4-chlorophenyl)ethyl)-1'-(2-fluoroethyl)-4,6-dihydrospiro[[1,2,3]triazolo[4,5-b]pyridine-7,3'-indoline]-2',5(3H)-dione], the EC50 in the data set on DENV-2 replicon (setting [2]) was 37 to 290 nM; in the data set on DENV-2 replicon (setting [4]), 38 nM; in the data set on DENV-4 replicon, greater than 5000 nM; in the data set on DENV-1 replicon, greater than 5000 nM; in the data set on DENV-3 replicon (setting [3]), 9 to 76 nM; with DENV-3 replicon (setting [5]), 9 nM. The compound further registered a CC50 at 48 h in data set [1] greater than 10000 nM.
